{"source": "patent US10072020B1", "about": "“Isatin spiro compounds with antibacterial activities and a method of preparing the same” (SHAANXI UNIVERSITY OF SCIENCE AND TECHNOLOGY, priority 2018, dated 2018)", "assay_in_all_cases": "Antibacterial activity test, MIC by agar dilution", "type_in_all_cases": "cell-based", "key": {"[1]": {"system": "Escherichia coli 10-2", "settings": "102, MH agar plate two-fold dilution, 25° C. for 18-24 hours, read-out: Minimum Inhibitory Concentrations", "procedure": "(§1) Antibacterial Activity Test of the Compounds of the Invention\n(§2) The compounds were tested for their antibacterial activities using the following standard strains: Escherichia coli ATCC 25922, Escherichia coli 10-1, and Escherichia coli 10-2.\n(§3) Preparation of Escherichia coli strains and bacterial liquid: the test strains (Escherichia coli ATCC 25922, Escherichia coli 10-1, and Escherichia coli 10-2) stock solutions were seeded in LB solid Media Petri dishes and placed in a 37° C. incubator overnight. The next day, single colonies were picked from LB solid petri dishes and inoculated into 6-10 mL LB liquid medium and cultured with shaking at 150 rpm for 3 hours at 37° C. 100 μL of the liquid was evenly coated on an LB solid plate, and inverted in an incubator at 37° C. overnight. Viable cells in the logarithmic growth phase were collected after 16-18 hours, and sterile water was added to form a bacteria suspension with the number of bacteria being 106 CFu·mL^−1.\n(§4) Preparation of compound-containing agar plate: MH agar was heated to dissolve and placed in 45-50° C. water bath to balance, the compounds were added at different concentrations (160, 300, 600 μg·mL^−1). The mixtures were mixed evenly and poured onto sterilization plates, placed into a sealed plastic bag at 2-8° C.\n(§5) Determination of the minimum inhibitory concentration: the minimum inhibitory concentrations (MICs) of the test compounds on the test bacteria were determined by diluting the agar plate two-fold. Multi-point inoculation instrument was used to inoculate bacteria to the MH agar medium that contains the compounds, forming a plaque with a diameter of 5 to 8 mm. After the plates were incubated at 25° C. for 18-24 hours, the growth state of the bacteria was observed, and the minimum compound concentration for inhibiting the growth of the bacteria was the MIC."}, "[2]": {"system": "Escherichia coli ATCC 25922", "settings": "ATCC25922, MH agar plate two-fold dilution, 25° C. for 18-24 hours, read-out: Minimum Inhibitory Concentrations", "procedure": "as §1, §2, §3, §4, §5"}, "[3]": {"system": "Escherichia coli 10-1", "settings": "101, MH agar plate two-fold dilution, 25° C. for 18-24 hours, read-out: Minimum Inhibitory Concentrations", "procedure": "as §1, §2, §3, §4, §5"}}}
{"smiles": "CN1C(=O)[C@@]2(OC=C2C=O)c2cc(Br)ccc21", "note": "[Compound 1, (R)-5-bromo-1-methyl-2-oxospiro[indoline-3,2′-oxete]-3′-carbaldehyde]", "values": [{"measurement": "MIC", "setting": "[1]", "result": 160, "unit": "µg/mL"}, {"measurement": "MIC", "setting": "[2]", "result": 300, "unit": "µg/mL"}, {"measurement": "MIC", "setting": "[3]", "result": 160, "unit": "µg/mL"}]}
{"smiles": "CN1C(=O)[C@@]2(OC=C2C=O)c2cccc(Br)c21", "note": "[Compound 2, (R)-7-bromo-1-methyl-2-oxospiro[indoline-3,2′-oxete]-3′-carbaldehyde]", "values": [{"measurement": "MIC", "setting": "[1]", "result": "> 160", "unit": "µg/mL"}, {"measurement": "MIC", "setting": "[2]", "result": 300, "unit": "µg/mL"}, {"measurement": "MIC", "setting": "[3]", "result": 160, "unit": "µg/mL"}]}
{"smiles": "CN1C(=O)[C@@]2(OC=C2C=O)c2cc(Cl)ccc21", "note": "[Compound 3, (R)-5-chloro-1-methyl-2-oxospiro[indoline-3,2′-oxete]-3′-carbaldehyde]", "values": [{"measurement": "MIC", "setting": "[1]", "result": 300, "unit": "µg/mL"}, {"measurement": "MIC", "setting": "[2]", "result": 300, "unit": "µg/mL"}, {"measurement": "MIC", "setting": "[3]", "result": 160, "unit": "µg/mL"}]}
{"smiles": "CN1C(=O)[C@@]2(OC=C2C=O)c2cccc(Cl)c21", "note": "[Compound 4, (R)-7-chloro-1-methyl-2-oxospiro[indoline-3,2′-oxete]-3′-carbaldehyde]", "values": [{"measurement": "MIC", "setting": "[1]", "result": 160, "unit": "µg/mL"}, {"measurement": "MIC", "setting": "[2]", "result": "> 600", "unit": "µg/mL"}, {"measurement": "MIC", "setting": "[3]", "result": 300, "unit": "µg/mL"}]}
{"smiles": "CN1C(=O)[C@@]2(OC(c3ccccc3)=C2C(=O)c2ccccc2)c2cc(Br)ccc21", "note": "[Compound 5, (R)-3′-benzoyl-5-bromo-1-methyl-4′-phenylspiro[indoline-3,2′-oxet]-2-one]", "values": [{"measurement": "MIC", "setting": "[1]", "result": 300, "unit": "µg/mL"}, {"measurement": "MIC", "setting": "[2]", "result": 160, "unit": "µg/mL"}, {"measurement": "MIC", "setting": "[3]", "result": 300, "unit": "µg/mL"}]}
{"smiles": "CN1C(=O)[C@@]2(OC(c3ccccc3)=C2C(=O)c2ccccc2)c2cccc(Br)c21", "note": "[Compound 6, (R)-3′-benzoyl-7-bromo-1-methyl-4′-phenylspiro[indoline-3,2′-oxet]-2-one]", "values": [{"measurement": "MIC", "setting": "[1]", "result": 300, "unit": "µg/mL"}, {"measurement": "MIC", "setting": "[2]", "result": 300, "unit": "µg/mL"}, {"measurement": "MIC", "setting": "[3]", "result": "> 600", "unit": "µg/mL"}]}
{"smiles": "CN1C(=O)[C@@]2(OC(c3ccccc3)=C2C(=O)c2ccccc2)c2cc(Cl)ccc21", "note": "[Compound 7, (R)-3′-benzoyl-5-chloro-1-methyl-4′-phenylspiro[indoline-3,2′-oxet]-2-one]", "values": [{"measurement": "MIC", "setting": "[1]", "result": 300, "unit": "µg/mL"}, {"measurement": "MIC", "setting": "[2]", "result": 300, "unit": "µg/mL"}, {"measurement": "MIC", "setting": "[3]", "result": 160, "unit": "µg/mL"}]}
{"smiles": "CN1C(=O)[C@@]2(OC(c3ccccc3)=C2C(=O)c2ccccc2)c2cccc(Cl)c21", "note": "[Compound 8, (R)-3′-benzoyl-7-chloro-1-methyl-4′-phenylspiro[indoline-3,2′-oxet]-2-one]", "values": [{"measurement": "MIC", "setting": "[1]", "result": 300, "unit": "µg/mL"}, {"measurement": "MIC", "setting": "[2]", "result": 160, "unit": "µg/mL"}, {"measurement": "MIC", "setting": "[3]", "result": 300, "unit": "µg/mL"}]}
{"smiles": "CCN1C(=O)[C@@]2(OC=C2C(=O)c2ccccc2)c2cc(Br)ccc21", "note": "[Compound 9, (R)-3′-benzoyl-5-bromo-1-ethylspiro[indoline-3,2′-oxet]-2-one]", "values": [{"measurement": "MIC", "setting": "[1]", "result": 160, "unit": "µg/mL"}, {"measurement": "MIC", "setting": "[2]", "result": 300, "unit": "µg/mL"}, {"measurement": "MIC", "setting": "[3]", "result": 300, "unit": "µg/mL"}]}
{"smiles": "CCCN1C(=O)[C@@]2(OC(c3ccccc3)=C2C=O)c2cccc(Br)c21", "note": "[Compound 10, (R)-7-bromo-2-oxo-4′-phenyl-1-propylspiro[indoline-3,2′-oxete]-3′-carbaldehyde]", "values": [{"measurement": "MIC", "setting": "[1]", "result": "> 600", "unit": "µg/mL"}, {"measurement": "MIC", "setting": "[2]", "result": 300, "unit": "µg/mL"}, {"measurement": "MIC", "setting": "[3]", "result": 160, "unit": "µg/mL"}]}
{"smiles": "CCCN1C(=O)[C@@]2(OC=C2C(=O)c2ccccc2)c2cc(Cl)ccc21", "note": "[Compound 11, (R)-3′-benzoyl-5-chloro-1-propylspiro[indoline-3,2′-oxet]-2-one]", "values": [{"measurement": "MIC", "setting": "[1]", "result": 160, "unit": "µg/mL"}, {"measurement": "MIC", "setting": "[2]", "result": "> 600", "unit": "µg/mL"}, {"measurement": "MIC", "setting": "[3]", "result": 160, "unit": "µg/mL"}]}
{"smiles": "CCN1C(=O)[C@@]2(OC(c3ccccc3)=C2C=O)c2cccc(Cl)c21", "note": "[Compound 12, (R)-7-chloro-1-ethyl-2-oxo-4′-phenylspiro[indoline-3,2′-oxete]-3′-carbaldehyde]", "values": [{"measurement": "MIC", "setting": "[1]", "result": 300, "unit": "µg/mL"}, {"measurement": "MIC", "setting": "[2]", "result": 300, "unit": "µg/mL"}, {"measurement": "MIC", "setting": "[3]", "result": 160, "unit": "µg/mL"}]}
{"smiles": "CCN1C(=O)[C@@]2(OC=C2C=O)c2cc(Br)ccc21", "note": "[Compound 13, (R)-5-bromo-1-ethyl-2-oxospiro[indoline-3,2′-oxete]-3′-carbaldehyde]", "values": [{"measurement": "MIC", "setting": "[1]", "result": 160, "unit": "µg/mL"}, {"measurement": "MIC", "setting": "[2]", "result": 160, "unit": "µg/mL"}, {"measurement": "MIC", "setting": "[3]", "result": 300, "unit": "µg/mL"}]}
{"smiles": "O=CC1=CO[C@@]12C(=O)N(Cc1ccccc1)c1c(Cl)cccc12", "note": "[Compound 14]", "values": [{"measurement": "MIC", "setting": "[1]", "result": 160, "unit": "µg/mL"}, {"measurement": "MIC", "setting": "[2]", "result": 300, "unit": "µg/mL"}, {"measurement": "MIC", "setting": "[3]", "result": 160, "unit": "µg/mL"}]}
{"smiles": "O=C(C1=C(c2ccccc2)O[C@@]12C(=O)N(Cc1ccccc1)c1c(Br)cccc12)c1ccccc1", "note": "[Compound 15]", "values": [{"measurement": "MIC", "setting": "[1]", "result": 300, "unit": "µg/mL"}, {"measurement": "MIC", "setting": "[2]", "result": 160, "unit": "µg/mL"}, {"measurement": "MIC", "setting": "[3]", "result": 160, "unit": "µg/mL"}]}
{"smiles": "CCCN1C(=O)[C@@]2(OC(c3ccccc3)=C2C(=O)c2ccccc2)c2cc(Cl)ccc21", "note": "[Compound 16, (R)-3′-benzoyl-5-chloro-4′-phenyl-1-propylspiro[indoline-3,2′-oxet]-2-one]", "values": [{"measurement": "MIC", "setting": "[1]", "result": 160, "unit": "µg/mL"}, {"measurement": "MIC", "setting": "[2]", "result": 160, "unit": "µg/mL"}, {"measurement": "MIC", "setting": "[3]", "result": 300, "unit": "µg/mL"}]}
{"smiles": "O=C1Nc2ccccc2C1=O", "note": "[isatin]", "values": [{"measurement": "MIC", "setting": "[1]", "result": 160, "unit": "µg/mL"}, {"measurement": "MIC", "setting": "[2]", "result": "> 600", "unit": "µg/mL"}, {"measurement": "MIC", "setting": "[3]", "result": 300, "unit": "µg/mL"}]}
